Experimental data reported in patent US7553837B2, “Phenylazole compounds production process and antioxidants” (Nippon Soda Co., Ltd., priority 2003, dated 2009).

How the values were obtained:
5-lipoxygenase (5-LO) = target: T1, 5-lipoxygenase (5-LO) (Homo sapiens, UniProt P09917); assay: 5-lipoxygenase (5-LO) inhibitory activity, leukotriene B4 production in human peripheral blood mononuclear cells; format: cell-based; conditions: for 5-LO, percentage given after >10: bracketed value beside IC50 >10 μM, not explained, presumably inhibition at 10 μM; for IC50: human peripheral blood mononuclear cells, A23187, leukotriene B4 production
T1 construct: human peripheral blood mononuclear cells and each of test compounds dissolved in DMSO (final concentration: 1%) were preincubated; endogenous in cells; host or cells: human peripheral blood mononuclear cells
T1 sequence (P09917 1-674): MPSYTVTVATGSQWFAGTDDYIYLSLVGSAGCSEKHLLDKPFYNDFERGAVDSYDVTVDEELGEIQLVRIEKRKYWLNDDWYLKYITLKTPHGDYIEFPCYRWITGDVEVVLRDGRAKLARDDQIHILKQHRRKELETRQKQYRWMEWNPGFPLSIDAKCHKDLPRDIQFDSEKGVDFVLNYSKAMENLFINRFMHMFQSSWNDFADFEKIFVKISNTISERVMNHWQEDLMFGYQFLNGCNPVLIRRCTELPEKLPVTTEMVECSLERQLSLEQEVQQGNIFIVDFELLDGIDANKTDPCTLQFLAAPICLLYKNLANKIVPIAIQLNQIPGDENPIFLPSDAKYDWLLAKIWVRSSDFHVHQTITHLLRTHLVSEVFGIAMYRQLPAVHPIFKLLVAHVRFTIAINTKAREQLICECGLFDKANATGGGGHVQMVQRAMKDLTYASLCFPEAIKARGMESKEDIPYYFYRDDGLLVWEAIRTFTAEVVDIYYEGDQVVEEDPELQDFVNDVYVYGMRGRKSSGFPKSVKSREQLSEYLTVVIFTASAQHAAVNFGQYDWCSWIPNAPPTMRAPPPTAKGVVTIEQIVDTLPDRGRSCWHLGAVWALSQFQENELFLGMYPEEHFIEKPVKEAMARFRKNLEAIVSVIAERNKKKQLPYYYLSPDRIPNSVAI
Description: A 5-LO inhibitory activity was measured by a partially modified process of a process of Carter et al. (Carter G. W, et al, J. Pharmacol. Exp. Ther.: 256, 929-37, 1991). That is, human peripheral blood mononuclear cells and each of test compounds dissolved in DMSO (final concentration: 1%) were preincubated (37° C., 15 minutes) in a Hanks' balanced salt solution and 30 μM A23187 was further added, followed by incubation (37° C., 30 minutes). The amount of leukotriene B4 produced as a result of incubation was determined by enzyme immunoassay and a 50% production inhibitory concentration (μM) against 5-LO of each test compound was calculated.

[1] = target: T2, 15-LO obtained from reticulocyte of rabbit (Oryctolagus cuniculus, UniProt P12530); assay: 15-lipoxygenase (15-LO) inhibitory activity, 15-HETE production; format: biochemical; conditions: 15-LO from reticulocyte of rabbit, linoleic acid
T2 construct: 15-LO obtained from reticulocyte of rabbit; from tissue; host or cells: rabbit reticulocytes
T2 sequence (P12530 1-663): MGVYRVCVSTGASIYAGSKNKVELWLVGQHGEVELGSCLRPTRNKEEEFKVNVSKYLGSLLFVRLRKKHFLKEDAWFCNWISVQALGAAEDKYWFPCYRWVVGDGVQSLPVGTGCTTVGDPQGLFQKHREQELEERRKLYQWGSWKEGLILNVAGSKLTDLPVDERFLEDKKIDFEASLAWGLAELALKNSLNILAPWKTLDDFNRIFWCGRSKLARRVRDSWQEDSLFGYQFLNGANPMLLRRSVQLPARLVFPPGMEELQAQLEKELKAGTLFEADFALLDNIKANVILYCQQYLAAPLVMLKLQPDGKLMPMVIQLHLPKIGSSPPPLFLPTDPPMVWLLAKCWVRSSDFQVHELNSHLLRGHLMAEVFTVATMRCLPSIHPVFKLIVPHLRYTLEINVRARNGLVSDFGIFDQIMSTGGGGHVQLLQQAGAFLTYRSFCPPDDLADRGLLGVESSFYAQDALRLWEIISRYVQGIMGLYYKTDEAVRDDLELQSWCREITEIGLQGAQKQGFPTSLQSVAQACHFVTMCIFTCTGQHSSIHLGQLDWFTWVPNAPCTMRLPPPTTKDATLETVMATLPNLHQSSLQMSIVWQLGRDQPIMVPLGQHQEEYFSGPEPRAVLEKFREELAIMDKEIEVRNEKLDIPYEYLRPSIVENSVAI
Description: A 15-LO inhibitory activity was measured by a partially modified process of a process of Auerbach et al. (Auerbach B. J, et al., Anal. Biochem.: 201, 375-80, 1992). That is, 15-LO obtained from reticulocyte of rabbit and each of test compounds dissolved in DMSO (final concentration: 1%) were preincubated (4° C., 15 minutes) in phosphoric acid buffer (pH 7.4) and 256 μM linoleic acid was further added, followed by incubation (4° C., 10 minutes). The amount of 15-HETE produced as a result of incubation was determined by spectrophotometry (OD660nm) and 50% production inhibitory concentration (μM) against 15-LO of each test compound was calculated. Compounds (R-3) and (R-4) (edaravone) of the following formulas were used as a control drug.

[2] = Acute oral toxicity, single oral dose, mortality rate after 7 days; conditions: mouse, in vivo, male mice, observed for 7 days
Description: A single dose of each of the compounds of the present invention was orally administered to male mice. After observing for 7 days, a mortality rate was determined.

[3] = tested on: lipid peroxidation activity of each tissue homogenate (brain, heart and kidney); assay: Tissue migration properties: ex vivo lipid peroxidation inhibition in brain, heart and kidney homogenates; conditions: SD male rats, 100 mg/kg intraperitoneally, 30 minutes after administration; for Ex vivo lipid peroxidation inhibition inhibition ratio (%) Brain: brain homogenate; for Ex vivo lipid peroxidation inhibition inhibition ratio (%) Heart: heart homogenate; for Ex vivo lipid peroxidation inhibition inhibition ratio (%) Kidney: kidney homogenate
Description: (§1) An in vitro lipid peroxidation inhibition of the compounds of the present invention was evaluated by measuring a lipid peroxidation activity in a rat brain homogenate according to a process of Malvy, c., et al., Biochemical and Biophysical Research Communications, 1980, Vol. 95, p. 734-737. That is, a rat brain was extracted and a 5-fold amount of an aqueous phosphoric acid buffered saline solution (pH 7.4) (hereinafter abbreviated to PBS) was added to the brain under ice cooling, followed by homogenization using a Teflon homogenizer and further centrifugation at 10,000 g for 20 minutes to prepare a brain homogenate as a supernatant. To the brain homogenate thus prepared, 500 μM cysteine, 5 μM sulfuric acid monobasic iron and 100 mM KCl were added, followed by incubation at 37° C. for 30 minutes. Malondialdehyde produced by the […] of lipid peroxidation was measured by a thiobarbituric acid process.
Tissue migration properties of the compounds of the present invention were evaluated by measuring an ex vivo lipid peroxidation inhibition. A solution or suspension prepared by dissolving or suspending each of test compounds in an aqueous physiological saline solution or a 1% poly oxy ethylene hydrogenated castor oil (NIKKOL HCO-60, manufactured by Nikko Chemicals Co., Ltd.) physiological saline solution was intraperitoneally administered to SD male rats (one group: 3 rats, 6 weeks old) (available from Nippon SLC Co., Ltd.) at a dose of 100 mg/kg. 30 Minutes after administration, rats were bled to death by cutting the carotid artery and then the brain, heart and kidney were extracted. A lipid peroxidation activity of each tissue homogenate was measured by the process described in Example 18. An inhibition ratio in each tissue of the compounds of the present invention was determined from the amount of lipid peroxidation produced of a control group (physiological saline administration group) and a test compound administration group.

[4] = tested on: abnormal behavior and fatality due to ferrous chloride; assay: In vivo antioxidative activity: ferrous chloride administration into spinal subarachnoid cavity of mice; design: species or system Slc:ICR male mice; conditions: score after 60 minutes; for In vivo antioxidation action 50% inhibitory concentration (ID50), Intraperitoneal administration: intraperitoneal administration 30 minutes before ferrous chloride into spinal canal; for In vivo antioxidation action 50% inhibitory concentration (ID50), Oral administration: oral administration 30 minutes before ferrous chloride into spinal canal
Description: An in vivo antioxidative activity of the compounds of the present invention was evaluated from an abnormal behavior due to administration of ferrous chloride into spinal subarachnoid cavity of mice as well as an inhibitory effect of a fatality rate according to the process described in J. Med. Chem., 1997, Vol. 40, p. 559-573. Using Slc:ICR male mice (one group: 3 to 7 mice, 5 weeks old) (available from Nippon SLC Co., Ltd.), 5 μl of a 50 mM ferrous chloride physiological saline solution was administered to the spinal canal through the space between the fifth lumbar vertebrae and the sixth lumbar vertebrae. 20 to 60 minutes after administration of ferrous chloride, symptoms were observed and a score after 60 minutes was determined from symptoms shown in Table 32. […] As is apparent from the results, the compounds of the present invention have an in vivo antioxidation action.

[5] = tested on: lipid peroxidation activity in a rat brain homogenate; assay: In vitro lipid peroxidation inhibition (rat brain homogenate, thiobarbituric acid process); format: biochemical; conditions: read-out: In vitro lipid peroxidation inhibition 50% inhibitory concentration (IC50 μM), 500 μM cysteine, 5 μM sulfuric acid monobasic iron, 100 mM KCl, 37° C. for 30 minutes
Description: as §1

[6] = tested on: lipid peroxidation in retina homogenate; assay: Retina migration properties: ex vivo retinal lipid peroxidation production inhibition; format: in vivo; conditions: SD male rats, retina taken after 30 minutes
Description: Retina migration properties of the compounds of the present invention were evaluated. To SD male rats (one group: 3 rats, 6 weeks old), a solution or suspension prepared by dissolving or suspending each of the test compounds in a 0.1N hydrochloric acid solution or a 1% poly oxy ethylene hydrogenated castor oil (NIKKOL HCO-60) solution was orally administered. After 30 minutes, both eyes were extracted and the retina was separated under ice cooling. A 5% homogenate solution of the retina was prepared in a 0.1M tris-hydrochloric acid buffer (pH 7.4) under ice cooling using a polytron homogenizer for a trace amount (NS-310E: manufactured by Nichion Irika Kiki Co., Ltd.) and, after autoxidation at 37° C. for one hour, the amount of lipid peroxidation produced was determined by a thiobarbituric acid process (MASUGI et al., vitamin 51, 21-29, 1977). A 30% inhibitory dose (ID30) was determined from the inhibition ratio at each dose. As is apparent from the results, the compounds of the present invention have an ex vivo retinal lipid peroxidation production inhibitory action and is also excellent in retina migration properties.

melting point [°C]	SMILES	5-LO, percentage given after >10 (5-lipoxygenase (5-LO)) [%]	IC50 (5-lipoxygenase (5-LO)) [µM]	IC50 [1] [µM]	LD50 at 7 days [2] [mg/kg]	Ex vivo lipid peroxidation inhibition inhibition ratio (%) Brain [3] [%]	Ex vivo lipid peroxidation inhibition inhibition ratio (%) Heart [3] [%]	Ex vivo lipid peroxidation inhibition inhibition ratio (%) Kidney [3] [%]	In vivo antioxidation action 50% inhibitory concentration (ID50), Intraperitoneal administration [4] [mg/kg]	In vivo antioxidation action 50% inhibitory concentration (ID50), Oral administration [4] [mg/kg]	IC50 [5] [µM]	Lipid peroxidation inhibition 30% inhibitory concentration (ID30, oral administration) in ex vivo retina [6] [mg/kg]
–	Cc1c(C)c2c(c(C)c1N)CC(C)(CN1CCC(c3ccccc3)CC1)O2 (stereo not drawn) [Compound R-3, reference compound]	34	> 10	3.26	< 300	–	–	–	–	–	–	–
–	Cc1c(C)c2c(c(C)c1N)CC(C)(C(=O)N1CCN(c3ccc(-n4ccnc4)cc3)CC1)O2 (racemic) [Compound B-1-1, (±)-(5-amino-2,4,6,7-tetramethyldihydrobenzofuran-2-yl)-[4-(4-imidazol-1-ylphenyl)-piperazin-1-yl]carboxamide]	–	–	–	–	96	88	95	4.4	19	–	–
–	Cc1c(C)c2c(c(C)c1O)CCC(C)(C(=O)Nc1ccc(-n3ccnc3)cc1)O2 (stereo not drawn) [Compound R-2, reference compound]	–	–	–	–	45	57	84	20	53	0.23	–
–	Cc1c(C)c2c(c(C)c1N)CC(C)(CN1CCN(c3ccc(-n4ccnc4)cc3)CC1)O2 (racemic) [Compound B-1-2, 4-(±)-(5-amino-2,4,6,7-tetramethyldihydrobenzofuran-2-ylmethyl)-1-(4-imidazol-1-ylphenyl)piperazine]	–	–	–	–	79	93	89	27	13	–	5.7
205 to 207	Cc1c(C)c2c(c(C)c1N)CC(C)(CN1CCN(c3ccc(-c4ccn[nH]4)cc3)CC1)O2 (stereo not drawn) [Compound B-1-34]	–	0.162	5.56	–	–	–	–	–	–	–	–
–	Cc1c(C)c2c(c(C)c1O)CC(C)(C(=O)Nc1ccc(-n3ccnc3)cc1)O2 (stereo not drawn) [Compound R-1, reference compound]	–	–	–	–	68	59	75	>30	>30	0.23	–
–	CC1=NN(c2ccccc2)C(=O)C1 [Compound R-4, edaravone]	32	> 10	5.57	–	–	–	–	–	–	–	–
–	Cc1c(C)c2c(c(C)c1N)CC(C)(CNc1ccc(-c3ccn[nH]3)cc1)O2 (racemic) [Compound B-2-5-1, 4-(±)-(5-amino-2,4,6,7-tetramethyldihydrobenzofuran-2-ylmethylamino)-phenyl-5-1H-pyrazole]	–	0.16	1.4	> 2000	96	88	88	16	17	0.42	–
